Assay results from patent publication US20250025438A1, “Derivative of aspartic acid and use thereof in treatment of metabolic diseases such as hepatic fibrosis and non-alcoholic hepatitis” (SHENZHEN JINGTAI TECHNOLOGY CO., LTD., priority 2021, published 2025).
Structures can show the parent of a compound that is named as a salt.

What was measured:
Type in all cases: cell-based
[1] = system: liver fibrosis-related genes; test: Semi-activated LX2 cells, qPCR: liver fibrosis-related genes overall; details: 48 hours, Q-PCR, Table 2
Procedure: Test compounds were added to the LX-2 cells respectively, and total RNA in the cells was extracted 48 hours later. This experiment was performed strictly in accordance with the instructions of the Total RNA Kit. The steps were as follows (note: this experiment was performed on ice throughout the entire process, and special RNase-free tips were used throughout the entire process): • 1) The 12-well cell culture plate was taken out from the incubator, the cell culture medium was discarded, the cells were washed twice with 1 mL of 1×PBS, and a negative pressure suction device was used to fully remove PBS; • 2) 350 μL of TRK Lysis Buffer mixture/well was prepared as needed (mixture preparation method: 1 mL of TRKLysis Buffer+20 μL of β-mercaptoethanol), vortexed and mixed well. 350 μL was added to each well of the 12-well cell culture plate, and allowed to stand at room temperature for 5 minutes to fully lyse the cells; • 3) 70% ethanol/well was prepared as needed, vortexed and mixed well. 350 μL was added to each well of the 12-well cell culture plate, mixed well by shaking, and transferred to the spin column (spin column+collection tube were assembled); • 4) Centrifugation was performed at 4° C., 12000 g for 60 sec. The waste liquid was discarded after centrifugation, while the spin column was kept; • 5) 500 μL of RNA Wash Buffer I was added, centrifuged at 4° C., 12000 g for 60 sec, the waste liquid was discarded after centrifugation, and the collection column was kept; • 6) 500 μL of RNA Wash Buffer II (confirmed that ethanol had been added) was added, centrifuged at 4° C., 12000 g for 60 sec, the waste liquid was discarded after centrifugation, and the collection column was kept; • 7) step 6) was repeated once again, centrifugation was performed at 4° C., 12000 g for 90 sec, the waste liquid was discarded after centrifugation, and the collection column was kept; • 8) Centrifugation was performed at 4° C., 12000 g for 120 sec to ensure that the spin column was fully dried; • 9) The dried spin column was inserted into a new 1.5 mL EP tube, and 30 μL of DEPC water was added to the membrane in the center of the spin column. It should be careful not to touch the EP tube cover in this step. It was allowed to stand at room temperature for 5 minutes to ensure that the RNA was fully dissolved in DEPC water. Centrifugation was performed at 4° C., 12000 g for 60 sec, and the EP tube was kept; • 10) NanoDrop ultra-micro-volume spectrophotometer was used to detect RNA concentration;
5.3 Q-PCR detection of target gene expression: According to the instructions of Power SYBR® Green PCR Master Mix, the specific operations were as follows:
LX2 cells were passaged and plated normally. After adherent growth for 12 hours, 50 µM of the test compound was added. After 48 hours, the cells were collected, total RNA was extracted, and Q-PCR was used to detect the changes in the mRNA expression levels of liver fibrosis-related genes (ACTA2 encoding α-SMA, COL1A1 and COLIA2 encoding collagen I, COL3A1 encoding collagen III, SMAD3 encoding Smad3) and inflammation-related genes (IL1β encoding IL-1β, TNFα encoding TNFα) (for specific methods, see 5. Q-PCR detection of target gene expression as described above). α-SMA was a marker of hepatic stellate cell activation, and collagen I and collagen III were the main components of extracellular matrix deposition.

[2] = system: TNF-α; test: In vitro efficacy in semi-activated LX2 cells, qPCR: TNF-α; details: Homo sapiens, LX-2, 48 hours, Q-PCR, read-out: TNF-α mRNA inhibition rate
[3] = system: Smad3; test: In vitro efficacy in semi-activated LX2 cells, qPCR: Smad3; details: 48 hours, Q-PCR; for inhibition of the expression of Smad3 at the mRNA level: Table 2; for inhibition at 50 µM: Homo sapiens, LX-2, 50 µM, read-out: Smad3 mRNA inhibition rate
Procedure, shortened: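 Relative mRNA levels, from SYBR Green Q-PCR with relative quantification, are reported for LX2 cells treated for 48 hours with 50 µM test compound, added after 12 hours of adherent growth.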

[4] = system: collagen I and collagen III; test: Semi-activated LX2 cells, qPCR: collagen I and collagen III at the mRNA level; details: 48 hours, Q-PCR, Table 2
Procedure, shortened: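 LX-2 human hepatic stellate cells, adhered 12 h, were treated with 50 µM test compound for 48 h. Total RNA was extracted, and COL1A1, COL1A2 and COL3A1 mRNA were measured by SYBR Green qPCR.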

[5] = system: COL1A1; test: In vitro efficacy in semi-activated LX2 cells, qPCR: COL1A1; details: Homo sapiens, LX-2, 50 µM, 48 hours, Q-PCR, read-out: COL1A1 mRNA inhibition rate
[6] = system: COL3A1; test: In vitro efficacy in semi-activated LX2 cells, qPCR: COL3A1; details: Homo sapiens, LX-2, 50 µM, 48 hours, Q-PCR, read-out: COL3A1 mRNA inhibition rate
[7] = system: IL-1β; test: In vitro efficacy in semi-activated LX2 cells, qPCR: IL-1β; details: Homo sapiens, LX-2, 50 µM, 48 hours, Q-PCR, read-out: IL-1β mRNA inhibition rate

COC(=O)[C@@H](N)CC(=O)O [Compound 4]
inhibition of the mRNA expression levels of liver fibrosis-related genes (overall) [1]: stronger effects | inhibition at 50 µM [2]: 25 to 50% | inhibition of the expression of Smad3 at the mRNA level [3]: could inhibit | inhibition at 50 µM [3]: 25 to 50% | inhibition of the expression of collagen I and collagen III at the mRNA level [4]: could inhibit | inhibition at 50 µM [5]: 25 to 50% | inhibition at 50 µM [6]: 25 to 50% | inhibition at 50 µM [7]: 1 to 10%

COC(=O)C[C@H](N)C(=O)OCOC(=O)[C@@H](N)CC(=O)OC [Compound 54, 4-dimethyl O′1,01-methylene (2S,2'S)-bis (2-aminosuccinate) hydrochloride]
inhibition of the mRNA expression levels of liver fibrosis-related genes (overall) [1]: stronger effects | inhibition at 50 µM [2]: 1 to 10% | inhibition of the expression of collagen I and collagen III at the mRNA level [4]: could inhibit | inhibition at 50 µM [5]: 25 to 50% | inhibition at 50 µM [6]: 10 to 25%

N[C@@H](CCC(=O)O)C(=O)O [Compound 47]
inhibition of the mRNA expression levels of liver fibrosis-related genes (overall) [1]: stronger effects | inhibition at 50 µM [2]: 10 to 25% | inhibition at 50 µM [3]: 1 to 10% | inhibition of the expression of collagen I and collagen III at the mRNA level [4]: could inhibit | inhibition at 50 µM [5]: 25 to 50% | inhibition at 50 µM [6]: 10 to 25% | inhibition at 50 µM [7]: 1 to 10%

COC(=O)C[C@H](N)C(=O)O [Compound 6]
inhibition of the mRNA expression levels of liver fibrosis-related genes (overall) [1]: stronger effects | inhibition at 50 µM [2]: 10 to 25% | inhibition of the expression of Smad3 at the mRNA level [3]: could inhibit | inhibition at 50 µM [3]: 25 to 50% | inhibition of the expression of collagen I and collagen III at the mRNA level [4]: could inhibit | inhibition at 50 µM [5]: 25 to 50% | inhibition at 50 µM [6]: 25 to 50% | inhibition at 50 µM [7]: 1 to 10%
